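Exposure lasted 48 hours, with cells grown in 96-well plates and compounds tested at five concentrations. The concentration for 50% growth inhibition is given as GI50. At the TGI there is no net growth.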

Among the test systems are A498 renal; NCI-H23 lung; SN12C renal; NCI-H460 lung; KM12 colon; SK-OV-3 ovarian; HOP-92 NSCLC; T-47D breast; M14 melanoma; MDA-MB-435.
Common to all, as to test: inhibition of tumour cell growth, NCI panel, 48 h

Turning to `CNC(=O)OCc1c(CO)nc(SC)n1C`, the TGI in the experiment on A498 renal, in the experiment on NCI-H23 lung, in the experiment with SN12C renal, in the experiment on NCI-H460 lung, in the experiment with KM12 colon and in the experiment on SK-OV-3 ovarian was over 100 µM in each case. The molecule further registered a TGI in the experiment on HOP-92 NSCLC of over 100 µM.
Consider `CC1=NN(c2cccc(Cl)c2)C2(SCC(=O)N2c2nc3ccccc3s2)/C1=C\c1cccs1` (centres undefined), for which the TGI in the experiment with T-47D breast was over 100 µM; in the experiment with A498 renal it was 59 µM; in the experiment on M14 melanoma, 89.3 µM; in the experiment with NCI-H23 lung it was 43.5 µM; in the experiment on NCI-H460 lung, 69.1 µM; in the experiment with KM12 colon it was 94.6 µM. For the same molecule, the TGI was over 100 µM in the experiment with MDA-MB-435 and 53.6 µM in the experiment with HOP-92 NSCLC.
With `Fc1ccc(C(OCCN2CCC3CCC(C2)N3C/C=C/c2ccco2)c2ccc(F)cc2)cc1` (centres undefined), the TGI was 20.8 µM in the experiment on T-47D breast; 23.3 µM in the experiment on A498 renal; 18.8 µM in the experiment on M14 melanoma; 24 µM in the experiment on NCI-H23 lung; 24.8 µM with SN12C renal; 24.5 µM with NCI-H460 lung. Moreover, the TGI came out at 30.6 µM in the experiment with KM12 colon, 26.5 µM in the experiment with MDA-MB-435, 30.3 µM in the experiment on SK-OV-3 ovarian and 19.1 µM in the experiment on HOP-92 NSCLC.
In the case of `COc1cccc2c1Cc1cc(-c3ccccc3)[n+](C)n1-2`, the TGI is 17.7 µM with T-47D breast; over 100 µM in the experiment with A498 renal; 24.9 µM with M14 melanoma; 32.4 µM in the experiment with NCI-H23 lung; 61.7 µM in the experiment on SN12C renal; 40.4 µM with NCI-H460 lung. Besides, the TGI in the experiment with KM12 colon was 34.3 µM; in the experiment with MDA-MB-435, 25.5 µM; in the experiment with SK-OV-3 ovarian it was over 100 µM; in the experiment with HOP-92 NSCLC, 66.4 µM.
For `COc1cc2c(ccc3c4cc(OC)c(OC)cc4c[n+](C)c23)cc1O`, the TGI with A498 renal is 65.8 µM; in the experiment with NCI-H23 lung, 68.3 µM; with SN12C renal, 22.1 µM; with NCI-H460 lung, over 75 µM; in the experiment with KM12 colon it was over 75 µM; in the experiment on SK-OV-3 ovarian, over 72.2 µM. The same molecule came in with a TGI with HOP-92 NSCLC of over 75 µM.
Regarding `Cc1nn(-c2ccccc2)c(C)c1/C=N/N=C1\SCC(=O)N1c1ccccc1`, the TGI with T-47D breast was over 100 µM; with A498 renal, 78.3 µM; with M14 melanoma, 60.7 µM; in the experiment on NCI-H23 lung, 86.4 µM; with SN12C renal it was over 100 µM; with NCI-H460 lung, 60.2 µM. The TGI was found to be 94.7 µM with KM12 colon, 55.3 µM in the experiment on MDA-MB-435 and 83 µM in the experiment with SK-OV-3 ovarian.
As to `CCC1CN(C(=O)c2ccccc2)C(Cc2c[nH]c3ccccc23)C(=O)C1CC(=O)OC` (centres undefined), the TGI was over 100 µM in the experiment with T-47D breast; 64.3 µM in the experiment on A498 renal; over 100 µM in the experiment on M14 melanoma; over 100 µM with NCI-H23 lung; over 100 µM in the experiment on SN12C renal; over 100 µM with NCI-H460 lung. In addition, the TGI in the experiment on KM12 colon, with MDA-MB-435, in the experiment on SK-OV-3 ovarian and with HOP-92 NSCLC was over 100 µM throughout.
As to `CCCNC(=O)CCC(C)C1CCC2C3C(C[C@H](OC(C)=O)[C@]12C)[C@@]1(C)CCC2(C[C@H]1C[C@H]3OC(C)=O)OOC1(CC[C@]3(C)C4C[C@H](OC(C)=O)[C@]5(C)C(C(C)CCC(=O)NCCC)CCC5C4[C@H](OC(C)=O)C[C@@H]3C1)OO2` (some centres undefined), the GI50 in the experiment on T-47D breast is over 100 µM; with HOP-92 NSCLC it was 7.51 µM. For the same molecule, the TGI with T-47D breast, in the experiment with A498 renal, in the experiment on M14 melanoma, in the experiment with NCI-H23 lung, with SN12C renal and with NCI-H460 lung was over 100 µM throughout. Further, the TGI is over 100 µM with KM12 colon, over 100 µM in the experiment on MDA-MB-435, over 100 µM in the experiment on SK-OV-3 ovarian and over 68.4 µM with HOP-92 NSCLC.
As to `Nc1cccc(/C=C/C(=O)N2CCN(CCOC(c3ccccc3)c3ccccc3)CC2)c1`, the TGI is 33.1 µM with T-47D breast; 31.6 µM with A498 renal; 26 µM in the experiment on M14 melanoma; 35.5 µM with NCI-H23 lung; 33.9 µM in the experiment on SN12C renal; 30.6 µM in the experiment on NCI-H460 lung. Also, the TGI stood at 30.7 µM in the experiment on KM12 colon, 29.8 µM with MDA-MB-435, 32.7 µM with SK-OV-3 ovarian and 26.2 µM in the experiment with HOP-92 NSCLC.
For `COc1cc2c(cc1O)CC[C@@H]1[C@@H]2CC[C@]2(C)[C@@H](OCCN(C)C)CC[C@@H]12`, the GI50 in the experiment on A498 renal is 0.569 µM; in the experiment on NCI-H23 lung it was 0.202 µM; with SN12C renal, 0.803 µM; in the experiment with NCI-H460 lung it was 0.219 µM; in the experiment with MDA-MB-435, 0.0997 µM; in the experiment with SK-OV-3 ovarian, 0.356 µM. Further, the TGI turned out to be 1.37 µM with A498 renal; 1.12 µM in the experiment on NCI-H23 lung; 4.05 µM in the experiment on SN12C renal; 2.09 µM in the experiment on NCI-H460 lung; 0.208 µM in the experiment with MDA-MB-435; 2.11 µM in the experiment on SK-OV-3 ovarian.
In the case of `O=C(OCN1C(=O)C2C3C=CC(C2C1=O)C1C2C(=O)N(COC(=O)C4CCCN4)C(=O)C2C31)C1CCCN1` (centres undefined), the TGI in the experiment on A498 renal was over 100 µM; in the experiment on M14 melanoma it was over 100 µM; in the experiment on NCI-H23 lung it was over 100 µM; with SN12C renal, over 100 µM; with NCI-H460 lung, over 56.5 µM; in the experiment with KM12 colon, over 100 µM. Besides, the TGI in the experiment with SK-OV-3 ovarian and in the experiment with HOP-92 NSCLC was over 100 µM throughout.
As to `CCOC(=O)C1=NN(c2ccc(C)cc2)C2=CC(C)=NN(C)C(=S)N21`, the TGI in the experiment with T-47D breast is 61.3 µM; in the experiment with M14 melanoma, over 100 µM; in the experiment on NCI-H23 lung, over 100 µM; in the experiment with SN12C renal, over 100 µM; in the experiment with NCI-H460 lung, over 100 µM; with KM12 colon, over 100 µM. For the same molecule, the TGI with MDA-MB-435 and in the experiment on SK-OV-3 ovarian was over 100 µM each time.
As for `COc1ccc2c(c1)[nH]c1c(/C=C/c3ccccc3)nccc12`, the TGI in the experiment on T-47D breast is over 100 µM; in the experiment on A498 renal, 26.6 µM; in the experiment on M14 melanoma, 35.3 µM; in the experiment on NCI-H23 lung it was 35.9 µM; with SN12C renal it was 30.2 µM; in the experiment with NCI-H460 lung, 33.7 µM. Besides, the TGI with KM12 colon was found to be 41.2 µM; in the experiment with MDA-MB-435, 49 µM; in the experiment with SK-OV-3 ovarian it was 34.9 µM; in the experiment on HOP-92 NSCLC, 44.4 µM.
Turning to `[N-]=[N+]=CC(=O)c1ccccc1C#CCCc1ccccc1`, the TGI is over 100 µM in the experiment with A498 renal; over 100 µM with M14 melanoma; 89.2 µM in the experiment with NCI-H23 lung; over 100 µM in the experiment with SN12C renal; over 100 µM in the experiment with NCI-H460 lung; over 100 µM in the experiment on KM12 colon. Besides, the TGI with SK-OV-3 ovarian came to 66.7 µM; in the experiment on HOP-92 NSCLC it was 63.6 µM.

Source of the values: PubChem BioAssay (NCI).
